Source: patent EP0170623B1, “Novel pharmaceutical use of (NVA)2-cyclosporine” (SANDOZ AG, priority 1984, dated 1990)

Tested on: Experimental Autoimmune Uveitis (EAV)
Details: 25 to 50 mg/kg/day i.m. on 7 consecutive days commencing 7 days after immunization with bovine S antigen; histopathology on day 14; compared with olive oil control groups

(Nva)^2-Cyclosporine
number of animals evidencing EAV: substantial reduction
